Data from the supplement of paper PMC10883282.
± gives the standard deviation of the averaged measurements.

Tests used:
Test in all cases: relative viability vs DMSO control (72 h) (fraction); higher = more viable cells
[1] = system: SW872
Summary of the method: (§1)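 A 5 µM positive control and 0.1% DMSO vehicle ran alongside sarcoma cell lines seeded in 384-well plates to reach 80–90% confluence. Serially diluted compound, 2.5 µl from source plates of 10 mM to 0.0002 mM, was added after 24 h, and the plates were held 72 h at 37 °C, 5% CO2. Relative viability was worked out from ATPLite readings as percent growth averaged over up to triplicate wells. The values were rescaled so that 1 is full and 0 is none.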

[2] = system: VA-ES-BJ
Summary of the method: as §1

[3] = system: SW1353
Summary of the method: as §1

[4] = system: A204
Summary of the method: as §1

[5] = system: SK-LMS-1
Summary of the method: as §1

[6] = system: G401
Summary of the method: as §1

[7] = system: KHOS-240S
Summary of the method: as §1

[8] = system: RD
Summary of the method: as §1

[9] = system: HS729
Summary of the method: as §1

[10] = system: SW982
Summary of the method: as §1

[11] = system: MES-SA
Summary of the method: as §1

[12] = system: SK-ES-1
Summary of the method: as §1

NC(=O)c1cnc2[nH]ccc2c1N[C@@H]1[C@@H]2CC3C[C@H]1C[C@@](O)(C3)C2 [Peficitinib]
Conditions	relative viability
[1], 0.00017 µM	1.01 ± 0.04
[1], 0.00051 µM	1.03 ± 0.014
[1], 0.00152 µM	1.037 ± 0.0068
[1], 0.00457 µM	0.985 ± 0.059
[1], 0.01372 µM	1.033 ± 0.0011
[1], 0.04115 µM	1.03 ± 0.03
[1], 0.1235 µM	1.02 ± 0.013
[1], 0.3704 µM	0.996 ± 0.037
[1], 1.111 µM	0.999 ± 0.065
[1], 3.333 µM	0.932 ± 0.076
[1], 10 µM	0.767 ± 0.026
[2], 0.00017 µM	1.06 ± 0.033
[2], 0.00051 µM	1.03 ± 0.027
[2], 0.00152 µM	1.01 ± 0.018
[2], 0.00457 µM	1.01 ± 0.032
[2], 0.01372 µM	1.04 ± 0.027
[2], 0.04115 µM	1.06 ± 0.028
[2], 0.1235 µM	1.04 ± 0.049
[2], 0.3704 µM	1.05 ± 0.032
[2], 1.111 µM	1.08 ± 0.02
[2], 3.333 µM	1.042 ± 0.0079
[2], 10 µM	0.887 ± 0.021
[3], 0.00017 µM	1.03 ± 0.028
[3], 0.00051 µM	1.05 ± 0.034
[3], 0.00152 µM	1.01 ± 0.044
[3], 0.00457 µM	1.012 ± 0.01
[3], 0.01372 µM	1.04 ± 0.023
[3], 0.04115 µM	1.07 ± 0.046
[3], 0.1235 µM	1.04 ± 0.031
[3], 0.3704 µM	1.08 ± 0.033
[3], 1.111 µM	1.09 ± 0.025
[3], 3.333 µM	1.09 ± 0.032
[3], 10 µM	0.988 ± 0.04
[4], 0.00017 µM	1.06 ± 0.013
[4], 0.00051 µM	1.07 ± 0.039
[4], 0.00152 µM	1.07 ± 0.022
[4], 0.00457 µM	1.06 ± 0.045
[4], 0.01372 µM	1.06 ± 0.043
[4], 0.04115 µM	1.07 ± 0.062
[4], 0.1235 µM	1.02 ± 0.072
[4], 0.3704 µM	0.959 ± 0.057
[4], 1.111 µM	0.913 ± 0.031
[4], 3.333 µM	0.705 ± 0.027
[4], 10 µM	0.435 ± 0.028
[5], 0.00017 µM	1.09 ± 0.013
[5], 0.00051 µM	1.09 ± 0.043
[5], 0.00152 µM	1.05 ± 0.012
[5], 0.00457 µM	1.076 ± 0.0086
[5], 0.01372 µM	1.1 ± 0.082
[5], 0.04115 µM	1.07 ± 0.025
[5], 0.1235 µM	1.08 ± 0.018
[5], 0.3704 µM	1.08 ± 0.043
[5], 1.111 µM	1.13 ± 0.013
[5], 3.333 µM	1.11 ± 0.037
[5], 10 µM	0.965 ± 0.025
[6], 0.00017 µM	0.9962 ± 0.0097
[6], 0.00051 µM	1.01 ± 0.013
[6], 0.00152 µM	1 ± 0.042
[6], 0.00457 µM	1.01 ± 0.012
[6], 0.01372 µM	1.05 ± 0.023
[6], 0.04115 µM	1.04 ± 0.021
[6], 0.1235 µM	1.08 ± 0.028
[6], 0.3704 µM	1.14 ± 0.047
[6], 1.111 µM	1.19 ± 0.037
[6], 3.333 µM	1.14 ± 0.049
[6], 10 µM	1.01 ± 0.025
[7], 0.00017 µM	1.01 ± 0.021
[7], 0.00051 µM	1.05 ± 0.011
[7], 0.00152 µM	1.04 ± 0.018
[7], 0.00457 µM	1.05 ± 0.025
[7], 0.01372 µM	1.06 ± 0.03
[7], 0.04115 µM	1.07 ± 0.015
[7], 0.1235 µM	1.05 ± 0.019
[7], 0.3704 µM	1.04 ± 0.018
[7], 1.111 µM	1.03 ± 0.028
[7], 3.333 µM	0.837 ± 0.1
[7], 10 µM	0.498 ± 0.015
[8], 0.00017 µM	1.03 ± 0.026
[8], 0.00051 µM	1.04 ± 0.02
[8], 0.00152 µM	1.04 ± 0.068
[8], 0.00457 µM	1.04 ± 0.03
[8], 0.01372 µM	1.03 ± 0.073
[8], 0.04115 µM	1.05 ± 0.083
[8], 0.1235 µM	1.07 ± 0.081
[8], 0.3704 µM	1.1 ± 0.059
[8], 1.111 µM	1.117 ± 0.0058
[8], 3.333 µM	1.099 ± 0.008
[8], 10 µM	1.01 ± 0.018
[9], 0.00017 µM	1.04 ± 0.04
[9], 0.00051 µM	1.02 ± 0.059
[9], 0.00152 µM	1.03 ± 0.053
[9], 0.00457 µM	1.04 ± 0.05
[9], 0.01372 µM	0.984 ± 0.047
[9], 0.04115 µM	1 ± 0.049
[9], 0.1235 µM	0.985 ± 0.057
[9], 0.3704 µM	1.02 ± 0.07
[9], 1.111 µM	0.977 ± 0.073
[9], 3.333 µM	0.9905 ± 0.0092
[9], 10 µM	0.758 ± 0.018
[10], 0.00017 µM	1.03 ± 0.021
[10], 0.00051 µM	1.03 ± 0.0094
[10], 0.00152 µM	1.016 ± 0.0054
[10], 0.00457 µM	1.03 ± 0.015
[10], 0.01372 µM	1.02 ± 0.015
[10], 0.04115 µM	1.05 ± 0.011
[10], 0.1235 µM	1.032 ± 0.0072
[10], 0.3704 µM	0.986 ± 0.074
[10], 1.111 µM	0.934 ± 0.12
[10], 3.333 µM	0.751 ± 0.07
[10], 10 µM	0.397 ± 0.0061
[11], 0.00017 µM	0.913 ± 0.024
[11], 0.00051 µM	0.9465 ± 0.0071
[11], 0.00152 µM	0.9008 ± 0.0041
[11], 0.00457 µM	0.918 ± 0.016
[11], 0.01372 µM	0.9 ± 0.011
[11], 0.04115 µM	0.94 ± 0.018
[11], 0.1235 µM	0.945 ± 0.029
[11], 0.3704 µM	0.971 ± 0.018
[11], 1.111 µM	0.981 ± 0.029
[11], 3.333 µM	0.769 ± 0.0099
[11], 10 µM	0.388 ± 0.021
[12], 0.00017 µM	0.984 ± 0.043
[12], 0.00051 µM	1.01 ± 0.039
[12], 0.00152 µM	1.02 ± 0.043
[12], 0.00457 µM	0.97 ± 0.062
[12], 0.01372 µM	0.9884 ± 0.0051
[12], 0.04115 µM	1.02 ± 0.029
[12], 0.1235 µM	1.02 ± 0.081
[12], 0.3704 µM	1.04 ± 0.017
[12], 1.111 µM	0.989 ± 0.04
[12], 3.333 µM	0.796 ± 0.085
[12], 10 µM	0.102 ± 0.0019
